# According to US10865193B2, “Pyridone derivatives for the treatment of viral infections and further diseases” (JANSSEN SCIENCES IRELAND UNLIMITED COMPANY, priority 2013, dated 2020):
# Assays:
# Format in all cases: cell-based
# human TLR7 = target: T1, human TLR7 (Homo sapiens, UniProt Q9NYK1); experiment: TLR7 cellular reporter assay (HEK293, NFκB-luc); conditions: HEK293 transiently transfected with TLR7 and NFκB-luc; 6 hours incubation; lowest effective concentration
# T1 construct: expressed in transfected cells; host or cells: HEK293 (transient transfection)
# T1 sequence (Q9NYK1 27-1049): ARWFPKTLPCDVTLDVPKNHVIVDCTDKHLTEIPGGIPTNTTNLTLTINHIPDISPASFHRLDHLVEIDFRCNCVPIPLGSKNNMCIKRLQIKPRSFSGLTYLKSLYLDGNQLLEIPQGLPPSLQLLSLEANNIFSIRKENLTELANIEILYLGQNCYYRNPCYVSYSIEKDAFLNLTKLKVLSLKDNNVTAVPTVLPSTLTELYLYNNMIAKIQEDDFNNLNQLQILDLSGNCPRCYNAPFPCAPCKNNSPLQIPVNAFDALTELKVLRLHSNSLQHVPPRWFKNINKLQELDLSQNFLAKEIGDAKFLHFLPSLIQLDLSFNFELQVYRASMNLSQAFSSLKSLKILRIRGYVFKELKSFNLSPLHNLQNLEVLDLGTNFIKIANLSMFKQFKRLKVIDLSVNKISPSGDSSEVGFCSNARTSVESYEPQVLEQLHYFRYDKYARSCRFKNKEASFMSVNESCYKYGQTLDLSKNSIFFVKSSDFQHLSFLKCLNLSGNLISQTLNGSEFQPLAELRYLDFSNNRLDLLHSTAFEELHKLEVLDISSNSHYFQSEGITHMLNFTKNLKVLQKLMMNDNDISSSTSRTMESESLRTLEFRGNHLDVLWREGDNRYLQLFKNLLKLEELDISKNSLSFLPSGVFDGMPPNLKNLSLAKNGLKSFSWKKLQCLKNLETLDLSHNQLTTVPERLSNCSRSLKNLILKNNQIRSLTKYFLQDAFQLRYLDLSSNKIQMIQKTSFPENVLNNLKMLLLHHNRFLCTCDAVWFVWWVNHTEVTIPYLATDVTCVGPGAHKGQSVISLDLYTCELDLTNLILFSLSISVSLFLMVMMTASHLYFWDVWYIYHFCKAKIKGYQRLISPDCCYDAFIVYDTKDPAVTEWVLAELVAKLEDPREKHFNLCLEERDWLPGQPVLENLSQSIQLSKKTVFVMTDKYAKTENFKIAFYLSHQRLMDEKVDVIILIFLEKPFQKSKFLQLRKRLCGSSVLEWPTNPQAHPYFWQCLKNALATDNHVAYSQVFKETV
# Protocol: (§1) The ability of compounds to activate human TLR7 and/or TLR8 was assessed in a cellular reporter assay using HEK293 cells transiently transfected with a TLR7 or TLR8 expression vector and NFκB-luc reporter construct.
# (§2) Briefly, HEK293 cells were grown in culture medium (DMEM supplemented with 10% FCS and 2 mM Glutamine). For transfection of cells in 15 cm dishes, cells were detached with Trypsin-EDTA, transfected with a mix of CMV-TLR7 or TLR8 plasmid (1700 ng), NFκB-luc plasmid (850 ng) and a transfection reagent and incubated for 48 h at 37° C. in a humidified 5% CO2 atmosphere. Transfected cells were then washed in PBS, detached with Trypsin-EDTA and resuspended in medium to a density of 1.25×10^5 cells/mL. Forty microliters of cells were then dispensed into each well in 384-well plates, where 200 nL of compound in 100% DMSO was already present. Following 6 hours incubation at 37° C., 5% CO2, the luciferase activity was determined by adding 15 μL of Steady Lite Plus substrate (Perkin Elmer) to each well and readout performed on a ViewLux ultraHTS microplate imager (Perkin Elmer). Dose response curves were generated from measurements performed in quadruplicates. Lowest effective concentrations (LEC) values, defined as the concentration that induces an effect which is at least two fold above the standard deviation of the assay, were determined for each compound.
# human TLR8 = target: T2, human TLR8 (Homo sapiens, UniProt Q9NR97); experiment: TLR8 cellular reporter assay (HEK293, NFκB-luc); conditions: HEK293 transiently transfected with TLR8 and NFκB-luc; 6 hours incubation; lowest effective concentration
# T2 construct: expressed in transfected cells; host or cells: HEK293 (transient transfection)
# T2 sequence (Q9NR97 27-1041): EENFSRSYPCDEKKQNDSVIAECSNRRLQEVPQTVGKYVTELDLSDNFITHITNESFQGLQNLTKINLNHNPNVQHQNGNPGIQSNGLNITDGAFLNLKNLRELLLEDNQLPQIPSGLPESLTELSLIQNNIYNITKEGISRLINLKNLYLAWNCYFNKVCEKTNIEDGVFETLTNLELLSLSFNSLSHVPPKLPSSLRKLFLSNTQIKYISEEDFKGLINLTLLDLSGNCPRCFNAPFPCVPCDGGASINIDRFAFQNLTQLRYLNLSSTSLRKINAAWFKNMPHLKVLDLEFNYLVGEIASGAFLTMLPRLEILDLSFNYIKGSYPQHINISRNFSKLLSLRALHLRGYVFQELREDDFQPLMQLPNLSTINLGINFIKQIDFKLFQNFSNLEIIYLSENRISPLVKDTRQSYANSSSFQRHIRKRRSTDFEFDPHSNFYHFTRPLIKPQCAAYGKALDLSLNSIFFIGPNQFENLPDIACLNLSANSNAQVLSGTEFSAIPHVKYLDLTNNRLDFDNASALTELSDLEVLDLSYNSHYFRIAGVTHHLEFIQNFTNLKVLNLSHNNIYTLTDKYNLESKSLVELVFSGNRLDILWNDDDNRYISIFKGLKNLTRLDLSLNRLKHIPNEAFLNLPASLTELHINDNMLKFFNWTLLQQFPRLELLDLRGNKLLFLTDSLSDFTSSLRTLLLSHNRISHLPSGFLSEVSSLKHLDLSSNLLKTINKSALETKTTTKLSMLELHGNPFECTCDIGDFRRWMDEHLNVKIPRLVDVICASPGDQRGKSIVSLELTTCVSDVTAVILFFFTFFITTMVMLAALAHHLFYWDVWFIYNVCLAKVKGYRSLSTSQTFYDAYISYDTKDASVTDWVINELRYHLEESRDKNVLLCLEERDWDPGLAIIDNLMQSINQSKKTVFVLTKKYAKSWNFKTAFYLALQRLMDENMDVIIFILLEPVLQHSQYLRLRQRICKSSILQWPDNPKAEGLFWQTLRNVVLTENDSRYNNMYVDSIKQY
# Protocol: as §1, §2
# [1] = test system: interferon-stimulated responsive elements (ISRE); experiment: Activation of ISRE promoter elements by conditioned media from PBMC (HEK-ISREluc); conditions: Homo sapiens; PBMC overnight incubation, supernatant on HEK-ISREluc cells 24 hours; lowest effective concentration; read-out: HEK-ISRE luc (LEC)
# Protocol: The potential of compounds to induce IFN-I was also evaluated by measuring the activation of interferon-stimulated responsive elements (ISRE) by conditioned media from PBMC. The ISRE element of sequence GAAACTGAAACT (SEQ ID NO: 1) is highly responsive to the STAT1-STAT2-1RF9 transcription factor, activated upon binding of IFN-I to their receptor IFNAR (Clontech, PT3372-5W). The plasmid pISRE-Luc from Clontech (ref. 631913) contains 5 copies of this ISRE element, followed by the firefly luciferase ORF. A HEK293 cell line stably transfected with pISRE-Luc (HEK-ISREluc) was established to profile the conditioned PBMC cell culture media.
# Briefly, PBMCs were prepared from buffy coats of at least two donors using a standard Ficoll centrifugation protocol. Isolated PBMCs were resuspended in RPMI medium supplemented with 10% human AB serum and 2×10^5 cells/well were dispensed into 384-well plates containing compounds (70 μL total volume). After overnight incubation, 10 μL of supernatant was transferred to 384-well plates containing 5×10^3 HEK-ISREluc cells/well in 30 μL (plated the day before). Following 24 hours of incubation, activation of the ISRE elements was measured by assaying luciferase activity using 40 μL/well Steady Lite Plus substrate (Perkin Elmer) and measured with ViewLux ultraHTS microplate imager (Perkin Elmer). The stimulating activity of each compound on the HEK-ISREluc cells was reported as LEC value, defined as the compound concentration applied to the PBMCs resulting in a luciferase activity at least two fold above the standard deviation of the assay. The LEC in turn indicates the degree of ISRE activation on transfer of a defined amount of PBMC culture medium. Recombinant interferon α-2a (Roferon-A) was used as a standard control compound.
SMILES,Human TLR 7 (LEC) (human TLR7) [µM],Human TLR 8 (LEC) (human TLR8) [µM],minimal effective concentration [1] [µM]
CCCCNc1nc(N)ncc1Cn1ccccc1=O [Compound 1],1.8,7.3,0.7
CCCCNc1nc(N)ncc1Cn1c(C)cccc1=O [Compound 2],1.1,2.1,0.8
CCCCNc1nc(N)ncc1Cn1cc(C)ccc1=O [Compound 3],0.8,10.3,0.3
CCCCNc1nc(N)ncc1Cn1ccc(C)cc1=O [Compound 4],0.5,2.2,0.5
CCCCNc1nc(N)ncc1Cn1c(=O)ccc2ccccc21 [Compound 5],0.9,2.7,0.04
CCCCNc1nc(N)ncc1Cn1cccc(F)c1=O [Compound 6],1.2,6.9,0.5
CCCCNc1nc(N)ncc1Cn1ccc(C(F)(F)F)cc1=O [Compound 7],0.5,6.8,0.5
CCCCCNc1nc(N)ncc1Cn1ccccc1=O [Compound 8],1.5,>25,0.6
CCCCCCNc1nc(N)ncc1Cn1ccccc1=O [Compound 9],7.3,>25,3
CCCCC(C)Nc1nc(N)ncc1Cn1ccccc1=O (stereo not drawn) [Compound 10],1.0,16,0.3
CCCC(C)Nc1nc(N)ncc1Cn1ccccc1=O (stereo not drawn) [Compound 11],1.3,14.6,0.3
